# Tests used:
# Assay in all cases: relative viability (nuclei count vs DMSO), 5 days (fraction); higher = more cells survive
# [1] = tested on: A-427
# In short: (§1)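 Lung cancer cell lines in 1536-well plates were dosed by pin tool the day after seeding, either with one drug alone or with a fixed anchor-drug dose plus five library-drug doses (not always all listed) in √10 steps. After 5 days, cells were fixed and their nuclei stained in one step (final 0.05% Triton X-100, 1% formaldehyde, 1 ug/ml Hoechst), then counted on 4× images. Relative viability is the nuclei count in treated wells divided by that in vehicle wells. Values are medians of duplicate plates.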
# [2] = tested on: NCI-H1650
# In short: as §1
# [3] = tested on: NCI-H596
# In short: as §1
# [4] = tested on: NCI-H2085
# In short: as §1
# [5] = tested on: NCI-H520
# In short: as §1
# [6] = tested on: SW 1573
# In short: as §1
# [7] = tested on: H3255
# In short: as §1
# [8] = tested on: NCI-H460
# In short: as §1
# [9] = tested on: NCI-H1755
# In short: as §1
# [10] = tested on: NCI-H2228
# In short: as §1
# [11] = tested on: NCI-H1355
# In short: as §1
# [12] = tested on: EKVX
# In short: as §1
# [13] = tested on: NCI-H838
# In short: as §1
# [14] = tested on: LK-2
# In short: as §1
# [15] = tested on: NCI-H322M
# In short: as §1
# [16] = tested on: NCI-H650
# In short: as §1
# [17] = tested on: NCI-H1944
# In short: as §1
# [18] = tested on: NCI-H441
# In short: as §1
# [19] = tested on: ChaGo-K-1
# In short: as §1
# [20] = tested on: NCI-H1666
# In short: as §1
# [21] = tested on: NCI-H358
# In short: as §1
# [22] = tested on: NCI-H3122
# In short: as §1
# [23] = tested on: NCI-H2347
# In short: as §1
compound,measurement,setting,value
O=c1[nH]c2ccccc2n1C1CCN(CCCC(c2ccc(F)cc2)c2ccc(F)cc2)CC1 [Pimozide] + Cc1cc(Nc2cc(N3CCN(C)CC3)nc(Sc3ccc(NC(=O)C4CC4)cc3)n2)n[nH]1 [Tozasertib] (partner 0.1 µM),relative viability,[1]; first compound 0.08 µM,0.194
same,relative viability,[1]; first compound 0.253 µM,0.189
same,relative viability,[1]; first compound 0.8 µM,0.222
same,relative viability,[1]; first compound 2.53 µM,0.16
same,relative viability,[1]; first compound 8 µM,0.208
same,relative viability,[2]; first compound 0.08 µM,0.347
same,relative viability,[2]; first compound 0.253 µM,0.398
same,relative viability,[2]; first compound 0.8 µM,0.475
same,relative viability,[2]; first compound 2.53 µM,0.331
same,relative viability,[2]; first compound 8 µM,0.307
same,relative viability,[3]; first compound 0.08 µM,0.929
same,relative viability,[3]; first compound 0.253 µM,0.959
same,relative viability,[3]; first compound 0.8 µM,0.893
same,relative viability,[3]; first compound 2.53 µM,0.839
same,relative viability,[3]; first compound 8 µM,0.882
same,relative viability,[4]; first compound 0.08 µM,0.793
same,relative viability,[4]; first compound 0.253 µM,0.82
same,relative viability,[4]; first compound 0.8 µM,0.704
same,relative viability,[4]; first compound 2.53 µM,0.844
same,relative viability,[4]; first compound 8 µM,0.736
same,relative viability,[5]; first compound 0.08 µM,0.503
same,relative viability,[5]; first compound 0.253 µM,0.422
same,relative viability,[5]; first compound 0.8 µM,0.42
same,relative viability,[5]; first compound 2.53 µM,0.435
same,relative viability,[5]; first compound 8 µM,0.366
same,relative viability,[6]; first compound 0.08 µM,0.132
same,relative viability,[6]; first compound 0.253 µM,0.273
same,relative viability,[6]; first compound 0.8 µM,0.133
same,relative viability,[6]; first compound 2.53 µM,0.194
same,relative viability,[6]; first compound 8 µM,0.174
same,relative viability,[7]; first compound 0.253 µM,0.592
same,relative viability,[7]; first compound 0.8 µM,0.47
same,relative viability,[7]; first compound 2.53 µM,0.584
same,relative viability,[7]; first compound 8 µM,0.659
same,relative viability,[8]; first compound 0.08 µM,0.407
same,relative viability,[8]; first compound 0.253 µM,0.314
same,relative viability,[8]; first compound 0.8 µM,0.446
same,relative viability,[8]; first compound 2.53 µM,0.0946
same,relative viability,[8]; first compound 8 µM,0.436
same,relative viability,[9]; first compound 0.08 µM,0.562
same,relative viability,[9]; first compound 0.253 µM,0.58
same,relative viability,[9]; first compound 0.8 µM,0.591
same,relative viability,[9]; first compound 2.53 µM,0.491
same,relative viability,[9]; first compound 8 µM,0.57
same,relative viability,[10]; first compound 0.08 µM,0.263
same,relative viability,[10]; first compound 0.253 µM,0.262
same,relative viability,[10]; first compound 0.8 µM,0.308
same,relative viability,[10]; first compound 2.53 µM,0.172
same,relative viability,[10]; first compound 8 µM,0.148
same,relative viability,[11]; first compound 0.08 µM,0.569
same,relative viability,[11]; first compound 0.253 µM,0.534
same,relative viability,[11]; first compound 0.8 µM,0.462
same,relative viability,[11]; first compound 2.53 µM,0.376
same,relative viability,[11]; first compound 8 µM,0.414
same,relative viability,[12]; first compound 0.08 µM,0.35
same,relative viability,[12]; first compound 0.253 µM,0.321
same,relative viability,[12]; first compound 0.8 µM,0.36
same,relative viability,[12]; first compound 2.53 µM,0.315
same,relative viability,[12]; first compound 8 µM,0.388
same,relative viability,[13]; first compound 0.08 µM,0.271
same,relative viability,[13]; first compound 0.253 µM,0.287
same,relative viability,[13]; first compound 0.8 µM,0.31
same,relative viability,[13]; first compound 2.53 µM,0.276
same,relative viability,[13]; first compound 8 µM,0.323
same,relative viability,[14]; first compound 0.08 µM,0.173
same,relative viability,[14]; first compound 0.253 µM,0.178
same,relative viability,[14]; first compound 2.53 µM,0.167
same,relative viability,[14]; first compound 8 µM,0.171
same,relative viability,[15]; first compound 0.253 µM,0.51
same,relative viability,[15]; first compound 0.8 µM,0.523
same,relative viability,[15]; first compound 2.53 µM,0.515
same,relative viability,[15]; first compound 8 µM,0.425
same,relative viability,[16]; first compound 0.08 µM,0.758
same,relative viability,[16]; first compound 0.253 µM,0.702
same,relative viability,[16]; first compound 0.8 µM,0.662
same,relative viability,[16]; first compound 2.53 µM,0.698
same,relative viability,[16]; first compound 8 µM,0.782
same,relative viability,[17]; first compound 0.08 µM,0.251
same,relative viability,[17]; first compound 0.253 µM,0.241
same,relative viability,[17]; first compound 0.8 µM,0.242
same,relative viability,[17]; first compound 2.53 µM,0.217
same,relative viability,[17]; first compound 8 µM,0.23
same,relative viability,[18]; first compound 0.08 µM,0.655
same,relative viability,[18]; first compound 0.253 µM,0.614
same,relative viability,[18]; first compound 0.8 µM,0.569
same,relative viability,[18]; first compound 2.53 µM,0.546
same,relative viability,[18]; first compound 8 µM,0.618
same,relative viability,[19]; first compound 0.08 µM,0.22
same,relative viability,[19]; first compound 0.253 µM,0.235
same,relative viability,[19]; first compound 0.8 µM,0.24
same,relative viability,[19]; first compound 2.53 µM,0.212
same,relative viability,[19]; first compound 8 µM,0.211
same,relative viability,[20]; first compound 0.08 µM,0.628
same,relative viability,[20]; first compound 0.253 µM,0.571
same,relative viability,[20]; first compound 0.8 µM,0.648
same,relative viability,[20]; first compound 2.53 µM,0.559
same,relative viability,[20]; first compound 8 µM,0.476
same,relative viability,[21]; first compound 0.08 µM,0.0997
same,relative viability,[21]; first compound 0.253 µM,0.11
same,relative viability,[21]; first compound 0.8 µM,0.112
same,relative viability,[21]; first compound 2.53 µM,0.108
same,relative viability,[21]; first compound 8 µM,0.106
same,relative viability,[22]; first compound 0.08 µM,0.397
same,relative viability,[22]; first compound 0.253 µM,0.386
same,relative viability,[22]; first compound 0.8 µM,0.353
same,relative viability,[22]; first compound 2.53 µM,0.216
same,relative viability,[22]; first compound 8 µM,0.378
same,relative viability,[23]; first compound 0.253 µM,0.582
same,relative viability,[23]; first compound 0.8 µM,0.531
same,relative viability,[23]; first compound 2.53 µM,0.563
same,relative viability,[23]; first compound 8 µM,0.578
